Five compounds from publication PMC5874678, “Bryonolic Acid Blocks Cancer Cell Clonogenicity and Invasiveness through the Inhibition of Fatty Acid: Cholesteryl Ester Formation” (Biomedicines, 2018) can be followed below.

Some results are limits rather than exact numbers.

The target of assay [1] is T1, cholesterol-5,6-epoxide hydrolase (ChEH) (Rattus norvegicus, UniProt Q9JJ46+Q9Z2Z8).
T1 construct: from tissue; host or cells: rat liver microsomes
T1 sequence (Q9JJ46 2-230 limits assumed): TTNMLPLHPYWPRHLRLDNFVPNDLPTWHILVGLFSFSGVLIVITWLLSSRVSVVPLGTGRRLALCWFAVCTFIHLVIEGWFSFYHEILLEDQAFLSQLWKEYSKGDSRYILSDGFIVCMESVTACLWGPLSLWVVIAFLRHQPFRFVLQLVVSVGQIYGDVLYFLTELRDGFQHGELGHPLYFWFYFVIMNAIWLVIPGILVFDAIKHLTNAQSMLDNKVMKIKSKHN
T1 sequence (Q9Z2Z8 1-471): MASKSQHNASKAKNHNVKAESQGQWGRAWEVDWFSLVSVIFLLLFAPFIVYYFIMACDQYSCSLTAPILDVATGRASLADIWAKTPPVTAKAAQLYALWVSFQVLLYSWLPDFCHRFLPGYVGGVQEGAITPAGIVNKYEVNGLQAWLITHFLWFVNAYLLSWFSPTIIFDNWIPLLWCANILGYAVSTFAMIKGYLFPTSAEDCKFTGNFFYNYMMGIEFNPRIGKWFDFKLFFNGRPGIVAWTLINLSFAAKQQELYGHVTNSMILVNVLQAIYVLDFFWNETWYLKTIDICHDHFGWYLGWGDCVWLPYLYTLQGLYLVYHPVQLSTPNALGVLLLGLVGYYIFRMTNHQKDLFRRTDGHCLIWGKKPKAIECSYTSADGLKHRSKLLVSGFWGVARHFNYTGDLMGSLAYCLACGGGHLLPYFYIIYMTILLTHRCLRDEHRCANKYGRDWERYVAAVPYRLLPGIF
Nature of the assay: Cholesterol epoxide hydrolase (ChEH) inhibition assay. It counts as biochemical. The settings on record: 150 μg rat liver microsomal proteins, 10 and 20 μM [14C]α-CE, compounds 0.01 to 1000 μM. In general terms: Liver microsomes are vesicles of endoplasmic reticulum, rich in cytochrome P450 enzymes.
Protocol: Inhibition of ChEH activity was measured as described previously on a whole-cell assay using MCF-7 cells [33]. […] Cells were treated for 24 h with 0.6 μM [^14C]α-CE.
The mixtures were incubated over a period of 0 to 30 min. The tubes were placed in ice cold distilled water to stop the reaction and the addition of 1.5 mL chloroform/methanol (2:1) and reaction buffer (500 mL) followed. After vortexing, the lower phase was aspirated and the residual aqueous phase was extracted with chloroform (1.5 mL). The organic extracts were combined and dried under a gentle stream of nitrogen, followed by suspension in ethanol (60 µL).
Samples were applied to TLC plates that had been heated previously for 1 h at 100 °C and were developed using ethyl acetate. The regions corresponding to authentic CE and cholestane-3β,5α,6β-triol standards were visualized by iodine vapour. Radioactive metabolites were visualized using a Storm apparatus (GE Healthcare) and quantified by densitometry with the software ImageQuant version 5.2 (GE Healthcare).

The target of the next assay is T2, ACAT in MB-231 cells (Homo sapiens, UniProt P35610).
T2 construct: endogenous in cells; host or cells: MCF-7, MDA-MB-231, U-87
T2 sequence (P35610 1-550): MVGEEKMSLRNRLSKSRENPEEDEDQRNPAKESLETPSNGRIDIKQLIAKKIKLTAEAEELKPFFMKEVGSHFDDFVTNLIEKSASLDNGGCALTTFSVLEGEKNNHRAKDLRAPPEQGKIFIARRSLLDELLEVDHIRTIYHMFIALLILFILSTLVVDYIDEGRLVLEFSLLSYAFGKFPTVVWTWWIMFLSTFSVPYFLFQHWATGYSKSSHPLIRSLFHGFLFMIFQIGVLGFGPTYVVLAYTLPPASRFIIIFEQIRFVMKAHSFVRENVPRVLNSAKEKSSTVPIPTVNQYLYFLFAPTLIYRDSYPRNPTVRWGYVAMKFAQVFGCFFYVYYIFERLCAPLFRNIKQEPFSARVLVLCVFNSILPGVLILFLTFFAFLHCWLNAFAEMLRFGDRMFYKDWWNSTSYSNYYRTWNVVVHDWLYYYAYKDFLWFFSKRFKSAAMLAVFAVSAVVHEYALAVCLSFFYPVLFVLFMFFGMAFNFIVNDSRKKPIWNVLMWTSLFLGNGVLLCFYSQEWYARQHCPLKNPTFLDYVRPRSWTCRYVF
Nature of the assay: ACAT activity in intact MB-231 cells. In kind it is cell-based. Particulars: MB-231, 24 h, [14C]cholesterol; for IC50: read-out: IC50, inhibition of ACAT activity in intact cells. On the procedure:
(§1) MCF-7, MB-231, U-87 and 3T3-EA cells were plated on six-well plates (40,000 cells/well). ACAT activity in intact cells was measured as described previously. Cells were preincubated for 15 min. with solvent vehicle or increasing concentrations of BrA ranging from 1 to 200 μM in complete medium. [^14C]Cholesterol (0.2 μCi/well) was added and the cells were incubated for 24 h. At the end of the incubation, intracellular and secreted lipids in the supernatant were extracted and then separated by TLC as described previously. Free and esterified cholesterol were identified using purified ^14C commercial standards and the radioactivity of each individual lipid was quantified using a phosphor screen (Storm; GE Healthcare, Chicago, IL, USA). ACAT activity is expressed as the percentage of the ACAT activity measured in the absence of inhibitors (cells treated with solvent vehicle).
(§2) Cells were plated on 6-well plates. […]. [^14C]cholesterol (0.2 μCi/well) was added and cells were incubated for 24 h. At the end of the incubation, intracellular lipids were extracted as described in [30] and then separated by TLC as described previously. Free and esterified cholesterol were identified using purified [^14C] standards and the radioactivity associated with each individual lipid was quantified using a Phosphoscreen (Storm; Molecular Dynamics). ACAT activity is expressed as the percentage of the ACAT activity measured in the absence of inhibitors (cells treated with solvent vehicle).

The target of another assay is T3, ACAT in MCF-7 cells (Homo sapiens, UniProt P35610).
T3 construct: endogenous in cells; host or cells: MCF-7, MDA-MB-231, U-87
T3 sequence (P35610 1-550): T2 sequence (P35610 1-550)
Nature of the assay: ACAT activity in intact MCF-7 cells. The settings on record: MCF-7, 24 h, [14C]cholesterol; for IC50: read-out: IC50, inhibition of ACAT activity in intact cells. It counts as cell-based. On the procedure:
as §1, §2

A further assay has as its target T4, ACAT in U-87 cells (Homo sapiens, UniProt P35610).
T4 construct: endogenous in cells; host or cells: MCF-7, MDA-MB-231, U-87
T4 sequence (P35610 1-550): T2 sequence (P35610 1-550)
Nature of the assay: ACAT activity in intact U-87 cells. Particulars: U-87, 24 h, [14C]cholesterol; for IC50: read-out: IC50, inhibition of ACAT activity in intact cells. In kind it is cell-based. The procedure:
as §1, §2

The target in the next assay is ERβ (Homo sapiens, UniProt Q92731). Nature of the assay: Oestrogen receptor competition binding assay, ERβ. Particulars: n.m. = no measurable inhibition of binding. The procedure:
(§3) Competition binding to ERα and ERβ was measured exactly as described previously.

For assay [2], the target named is T5, ACAT in NIH-3T3-CCK2R-E151A cells (3T3-EA) (Mus musculus, UniProt Q61263).
T5 construct: endogenous in cells; host or cells: NIH-3T3-CCK2R-E151A (3T3-EA)
T5 sequence (Q61263 1-540): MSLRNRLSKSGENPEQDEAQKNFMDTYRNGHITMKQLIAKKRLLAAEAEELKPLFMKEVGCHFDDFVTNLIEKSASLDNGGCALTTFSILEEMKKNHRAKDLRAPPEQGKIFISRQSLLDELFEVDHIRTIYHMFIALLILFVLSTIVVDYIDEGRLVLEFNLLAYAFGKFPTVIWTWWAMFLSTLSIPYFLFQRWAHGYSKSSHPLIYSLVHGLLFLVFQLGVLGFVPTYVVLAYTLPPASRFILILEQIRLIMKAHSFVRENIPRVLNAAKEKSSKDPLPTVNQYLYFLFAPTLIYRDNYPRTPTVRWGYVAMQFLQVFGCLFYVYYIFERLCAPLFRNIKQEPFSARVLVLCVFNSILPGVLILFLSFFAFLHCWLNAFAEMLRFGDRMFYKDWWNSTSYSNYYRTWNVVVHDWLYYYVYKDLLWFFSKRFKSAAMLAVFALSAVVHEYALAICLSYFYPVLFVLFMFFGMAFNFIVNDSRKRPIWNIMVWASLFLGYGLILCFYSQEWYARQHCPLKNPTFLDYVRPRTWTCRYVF
As to the kind of experiment: ACAT activity in intact 3T3-EA cells. Particulars: 24 h, [14C]cholesterol; for IC50: read-out: IC50, inhibition of ACAT activity in intact cells. It counts as cell-based. The procedure:
as §1, §2

A further assay addresses T6, ERα (Homo sapiens, UniProt P03372).
T6 sequence (P03372 1-595): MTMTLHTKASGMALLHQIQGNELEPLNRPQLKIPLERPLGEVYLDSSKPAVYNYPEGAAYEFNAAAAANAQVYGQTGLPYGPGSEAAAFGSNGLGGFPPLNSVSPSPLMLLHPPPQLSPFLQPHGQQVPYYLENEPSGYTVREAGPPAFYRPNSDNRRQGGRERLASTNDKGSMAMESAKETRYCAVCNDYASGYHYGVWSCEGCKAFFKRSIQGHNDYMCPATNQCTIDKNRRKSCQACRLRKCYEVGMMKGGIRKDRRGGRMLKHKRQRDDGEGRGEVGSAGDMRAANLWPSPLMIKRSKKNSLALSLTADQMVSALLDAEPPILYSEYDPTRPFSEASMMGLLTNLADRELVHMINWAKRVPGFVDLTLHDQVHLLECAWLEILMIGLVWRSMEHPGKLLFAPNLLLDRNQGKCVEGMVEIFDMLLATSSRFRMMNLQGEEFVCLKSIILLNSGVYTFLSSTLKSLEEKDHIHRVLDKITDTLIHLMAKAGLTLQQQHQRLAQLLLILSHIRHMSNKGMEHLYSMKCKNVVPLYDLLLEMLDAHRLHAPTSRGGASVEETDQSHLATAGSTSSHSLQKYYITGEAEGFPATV
As to the kind of experiment: Oestrogen receptor competition binding assay, ERα. The settings on record: n.m. = no measurable inhibition of binding. The procedure: as §3

Assay [3] deals with MCF-7, MB-231, U-87 and 3T3-EA cells. As to the kind of experiment: Clonogenic assay (colony formation). In kind it is cell-based. The settings on record: Homo sapiens, MCF7, four tested cell lines, vs solvent vehicle, read-out: inhibition of cancer cell colony formation. The procedure:
Following trypsinization of the cells, they were plated in tissue culture plates (60 mm) at a density of 500–1000 per plate. After adherence for 24 h, the drugs were added at the chosen final concentrations from freshly prepared stock solutions. The plates were washed twice with serum-free medium after 24 to 72 h incubation. Fresh medium was added and the plates were incubated at 37 °C until the colonies became visible. After incubation, the plates were washed with PBS and stained using Coomassie brilliant blue. The stained colonies were counted and are reported as the percentage of control cells (ethanol treated (0.01% (v/v)).

The test system is the same in assay [4]. As to the kind of experiment: Cell invasion assay (Matrigel-coated filters). It counts as cell-based. On the procedure:
Cells were added to six-well plates (40,000 cells/well) containing Dulbecco's Modified Eagle Medium (DMEM) and 10% FCS. Following incubation for 24 h, the cells were treated for a further 24 h in the presence of the test compounds, or else vehicle in DMEM and 2% Fetal Calf Serum (FCS). The cells were harvested and counted. Cells (20,000) were placed in serum-free DMEM on the surface of Nunc filters (8 mm diameter, […]; Nalgen Nunc International, Rochester, NY, USA). The filters were coated with growth factor-reduced Matrigel ([…] Matrigel; BD Biosciences, San Jose, CA, USA) in the presence of the test compounds or else vehicle. The base of the filter was filled with 10% FCS/DMEM. Following incubation for 48 h at 37 °C, cells which had invaded the Matrigel and attached themselves to the base of the filter were fixed, stained with Giemsa stain and counted microscopically.

ERβ, sequence (Q92731 whole entry, species assumed): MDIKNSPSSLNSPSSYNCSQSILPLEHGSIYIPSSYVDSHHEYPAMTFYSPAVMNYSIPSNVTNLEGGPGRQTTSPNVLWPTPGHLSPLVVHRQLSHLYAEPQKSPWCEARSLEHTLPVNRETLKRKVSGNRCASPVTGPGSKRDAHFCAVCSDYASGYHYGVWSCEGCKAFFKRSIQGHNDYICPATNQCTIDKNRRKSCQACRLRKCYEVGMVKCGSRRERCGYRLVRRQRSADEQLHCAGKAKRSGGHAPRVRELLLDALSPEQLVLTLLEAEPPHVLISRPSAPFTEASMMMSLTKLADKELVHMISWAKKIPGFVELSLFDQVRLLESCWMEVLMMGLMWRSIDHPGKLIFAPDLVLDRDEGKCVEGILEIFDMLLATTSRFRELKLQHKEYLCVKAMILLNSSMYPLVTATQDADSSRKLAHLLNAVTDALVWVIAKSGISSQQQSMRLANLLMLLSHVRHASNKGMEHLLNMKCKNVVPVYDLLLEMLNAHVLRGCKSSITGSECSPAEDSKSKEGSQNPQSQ

In the case of `C[C@]12CC[C@@H]3c4ccc(O)cc4CC[C@H]3[C@@H]1CC[C@@H]2O` [E2, 17β-estradiol], the “IC50, ChEH inhibition” value in [1] was “n.m”.

What is called IC50 is the concentration that inhibits the measured activity by half. As for `C=C(C)[C@@H]1CC[C@]2(C(=O)O)CC[C@]3(C)[C@H](CC[C@@H]4[C@@]5(C)CC[C@H](O)C(C)(C)[C@@H]5CC[C@]43C)[C@@H]12` [betulinic acid], the IC50 was 58.3 ± 8.1 µM at ACAT in MB-231 cells, 53.7 ± 4.2 µM at ACAT in MCF-7 cells, 61.4 ± 9.4 µM at ACAT in U-87 cells and 60.2 ± 8 µM in [2]. In addition, the “IC50, ChEH inhibition” value in assay [1] is “n.m”. The “IC50, competition with radiolabelled 17β-estradiol binding to ERβ” value (shortened to “IC50, competition … to ERβ”) on ERβ is “n.m”. Besides, at ERα, the “IC50, competition with radiolabelled 17β-estradiol binding to ERα” value is given as “n.m”.

The term inhibition denotes how much of the control response was suppressed. As for `CC1(C)[C@@H](O)CC[C@]2(C)C3=C(CC[C@@H]12)[C@@]1(C)CC[C@@]2(C)CC[C@@](C)(C(=O)O)C[C@H]2[C@]1(C)CC3` [bryonolic acid, D-C friedoolean-8-en-3β-ol-29 oic acid], the IC50 at ACAT in MB-231 cells is 29.5 ± 5.5 µM; at ACAT in MCF-7 cells it was 22.5 ± 3.7 µM; at ACAT in U-87 cells, 17.5 ± 4.8 µM; in [2], 19.4 ± 7.6 µM. For the same compound, the results for the “IC50, ChEH inhibition” value in [1] and in assay [1] (listed as BrA) were “n.m” and “does not inhibit ChEH”, respectively. Also, the “IC50, competition … to ERβ” value on ERβ is on record as “n.m”. The inhibition at 25 µM in assay [3] is > 50%. For the same compound, the “inhibition of cell invasiveness” value in [4] (25 μM, 24 h pre-treatment, 48 h invasion, four cell lines) is “observable in the four cell lines”. Besides, the “effect of added cholesteryl oleate on inhibition of cell invasiveness” value in [4] (cholesteryl oleate 4 µg/mL, MB-231 and U87 cells) is recorded as “blocked the inhibition of cell invasiveness triggered by BrA”. Moreover, the “IC50, competition with radiolabelled 17β-estradiol binding to ERα” value on ERα is “n.m”.

`CCCCCCCCCC[Si](C)(C)CCC(=O)NC(Cc1ccc(C)cc1)c1ccccc1` (centres unmarked) [sah 58-035, 3-[decyldimethylsilyl]-N-[2-(4-methylphenyl)-1-phenylethyl]-propanamide]: the IC50 stood at 9.1 ± 1.4 µM on ACAT in MB-231 cells, 5.1 ± 0.5 µM on ACAT in MCF-7 cells, 9.2 ± 2.2 µM at ACAT in U-87 cells and 7.4 ± 1.8 µM in assay [2].

Take `C[C@H]1[C@H](C)CC[C@]2(C(=O)O)CC[C@]3(C)C(=CC[C@@H]4[C@@]5(C)CC[C@H](O)C(C)(C)[C@@H]5CC[C@]43C)[C@H]12` [ursolic acid]: the “IC50, inhibition of ACAT activity in intact cells” value (against ACAT in MB-231 cells; at ACAT in MCF-7 cells; against ACAT in U-87 cells; in [2]) was “n.m” throughout. In assay [1], the “IC50, ChEH inhibition” value is reported as “n.m”. Moreover, the “IC50, competition … to ERβ” value at ERβ is reported as “n.m”.
